Measured values reported in publication PMC8622152, “Expression Profile and Ligand Screening of a Putative Odorant-Binding Protein, AcerOBP6, from the Asian Honeybee” (Insects, 2021).
pIC50, pKi: −log10 of the molar value. “Also recorded” adds a separate entry of the source. Read-outs that look alike come from different tables or passages of the source.

Legend:
AcerOBP6 = AcerOBP6 (Apis cerana cerana, UniProt A0A2A3ES84); type: binding; details: for binding affinity with AcerOBP6 (in words): competitive binding with 1-NPN, ligand up to 10 µM; for pIC50: concentration of ligand displacing 50% 1-NPN, ligand 1-10 µM, short dash: not possible to calculate the IC50 value; for pIC50 / pKi: AcerOBP6 1 µM, 1-NPN 1 µM; for pKi: Ki = [IC50]/(1 + [1-NPN]/K1-NPN), read-out: Ki (dissociation constant)
Description: Afterwards, the fluorescent probe N-phenyl-1-naphthylamine (1–NPN) was dissolved in methanol to yield a 1 mM stock solution. […] The binding constant of 1-NPN to AcerOBP6 (K1–NPN) was calculated using Scatchard plots of the binding data in GraphPad Prism 8.0.
Taking 1–NPN as the fluorescent reporter, we measured the binding affinity of each odorant by competitive binding assays using. All the 33 ligands (listed in Table S2) were dissolved in spectrally pure grade methanol. We titrated the odorants in a solution containing AcerOBP6 protein (1 μM) and 1–NPN (1 μM) to the final concentrations of 1–10 μM, respectively.

antennae of forager bees = assay: EAG assay based on RNAi (dsOBP6 feeding); set-up: species or system Apis cerana cerana; details: for change of EAG response in dsOBP6 group versus controls: 48 h after feeding dsOBP6-2 dsRNA, p < 0.05
Description: The plasmid extracted in Section 2.3 was used as a template to generate 2 dsRNA fragments of AcerOBP6. Meanwhile, dsRNA was synthesized using a T7 RiboMAX™ Express RNAi System (Promega, Madison, WI, USA); the primers used for dsRNA generating are listed in Table S1. The final concentration of dsRNA generation was diluted to 2.5 μg/μL. The concentration and integrity of dsRNA were determined using NanoDrop and agarose gel electrophoresis (1%). Forager bees were collected and fed with AcerOBP6 dsRNA (8 μg for each bee), and then maintained in an artificial climate incubator (65–75% RH; 28 ± 0.4 °C). At the same time, the GFP dsRNA and 30% sugar were employed as the control groups. Each experiment group included 30 bees, and 3 biological repeats were performed. At times of 24, 48, and 96 h after feeding, the RNAi effects were verified by qRT-PCR.
The antennae of forager bees were dissected from the bottom and immediately fixed to both sides of a two-pronged electrode using Spectra 360 electrode gel (Parker Laboratories Inc., Fairfield, NJ, USA). The odorants were dissolved in liquid paraffin to final concentrations of 300 μg/μL, and liquid paraffin was adopted as a blank control. A filter paper strip (3 cm × 1cm) filled with 10 μL tested solution was prepared and put into the tube of Pasteur Pipette, which was connected with the gas feeder equipment. The stimulation time of each odor was 0.5 s and the interval was 30 s. Three technical repetitions were carried out, and ten antennae of female adults were tested for each compound. Finally, the EAGPro software (Syntech) was used to analyze the EAG response recordings.

Chain of AcerOBP6 (A0A2A3ES84 entry or part of it): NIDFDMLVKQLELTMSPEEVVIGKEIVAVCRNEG

Row | Compound | binding affinity with AcerOBP6 (in words) (AcerOBP6) | pIC50 (AcerOBP6) | change of EAG response in dsOBP6 group versus controls (antennae of forager bees) | further results
1 | CCCCCCCC/C=C\CCCCCCCC(=O)OC [Methyl oleate] | could not bind or had a weak binding affinity |  |  | 
2 | CC(=O)OCCC(C)C [Isoamyl acetate] | could not bind or had a weak binding affinity |  |  | 
3 | C/C1=C\CC/C(C)=C/CC(C)(C)/C=C/C1 [α-caryophllene] | could not bind or had a weak binding affinity | < 5.00 |  | 
4 | C=CC(C)(O)CCC=C(C)C (centres unmarked) [Linalool] |  |  | significantly decreased | 
5 | CC/C=C\C/C=C\C/C=C\CCCCCCCC(=O)OCC [α-ethyl linolenic] | could not bind or had a weak binding affinity | < 5.00 |  | 
6 | CC12CCC(CC1)C(C)(C)O2 [Eucalyptol] |  |  | significantly decreased | 
7 | CCCCCCCCCCCCCCCCCC(=O)OC [Methyl stearate] | could not bind or had a weak binding affinity |  |  | 
8 | C=CC(=C)CCC=C(C)C [Myrcene] |  |  | significantly decreased | 
9 | -Ionone |  | 5.26 |  | pKi (AcerOBP6): 5.29
10 | CCCCCC(C)=O [2-Heptanone] |  |  | significantly decreased; also recorded: significant change | EAG response of worker bee antennae (antennae of forager bees; odorant 300 µg/µL in liquid paraffin, 10 µL on filter paper, 0.5 s stimulation): strongest response; also recorded: strong EAG responses
11 | CCCCCCCC/C=C\CCCCCCCC(=O)OCC [Ethyl oleate] | could not bind or had a weak binding affinity |  |  | 
12 | C=C/C(C)=C/C/C=C(\C)CCC=C(C)C [α-farnesene] | could not bind or had a weak binding affinity | < 5.00 |  | 
13 | CCCCCCCCCO [1-Nonanol] |  |  | significantly decreased | 
14 | -Pinene |  | 5.18 |  | pKi (AcerOBP6): 5.20
15 | CCOC(=O)/C=C/c1ccccc1 [Ethyl cinnamate] | could not bind or had a weak binding affinity |  |  | 
16 | CCOC(=O)/C=C/c1ccccc1 [Ethyl-trans-cinnamate] |  | 5.41 |  | pKi (AcerOBP6; listed as ethyl-trans-cinnamate): 5.43; pKi (AcerOBP6): 5.43
17 | CCCCC/C=C\C/C=C\CCCCCCCC(=O)OCC [Ethyl linoleate] | could not bind or had a weak binding affinity |  |  | 
18 | CC/C=C\C/C=C\C/C=C\CCCCCCCC(=O)OC [Methyl linolenate] | could not bind or had a weak binding affinity |  |  | 
19 | C=C/C(C)=C/CC=C(C)C [β-ocimene] |  | 5.26 | significantly decreased | pKi (AcerOBP6): 5.28
20 | CCCCCCOC(C)=O [hexyl acetate] |  |  | significantly decreased | 
21 | (+) -Cinene |  | 5.26 | significantly decreased | pKi (AcerOBP6): 5.28
22 | CCCCCCCCCCCCCCCC(=O)OC [Methyl palmitate] | could not bind or had a weak binding affinity | < 5.00 |  | 
